Data from article PMC3904085 (Frontiers in Neuroscience, 2014).
Entries after “also recorded” stand apart in the source; their conditions may differ.

Key:
[1] = test system: mice lacking OX1 receptors; experiment: DRL 36-s schedule of reinforcement in OX1 KO mice; assay type: in vivo, mouse; conditions: for Lever Presses Mean / Reinforcers Mean: OX1 KO mice DRL-36-s, raw data; for Lever presses emitted / Reinforcers received: DRL-36-s
Excerpt: (§1) Rats were acclimated to housing conditions for 4 days, followed by sham dosing once daily for 3 days, prior to the experiment. For DRL experiments, male Sprague–Dawley rats weighing between 300 and 350 g at the beginning of the behavioral experiments (Holtzman, Madison, WI) were housed in pairs. For mouse DRL studies, male C57Bl/6 mice (Taconic Farms, Hudson, NY) or mice lacking either OX1 or OX2 receptors, around 8 weeks of age, were obtained from private breeding colonies at Taconic Farms (Hudson, NY). OX1 and OX2 receptor knockout mice were generated using in vitro fertilization of embryos in C57Bl/6 female mice with sperm harvested from male mice obtained from the University of Texas Southwestern Medical Center (Dallas, TX), and backcrossed for at least 10 generations. Mice and rats were housed in separate colony rooms, which were maintained at 22°C and 60% relative humidity. For rat DRL experiments, water was available for a 20-min period following the daily behavioral session. Based on recommendations from the animal care and use committee, the mouse DRL assay was developed using food deprivation rather than water deprivation. […] All experiments were conducted during the light cycle and in compliance with the Guide for the Care and Use of Laboratory Animals under protocols approved by a local animal care and use committee.
(§2) The levers in these chambers were mounted on one wall with an adjacent food magazine next to the lever in the middle of the wall. A reinforced response caused a clicker apparatus to activate and the pellet feeder to deposit one 45-mg sucrose pellet (BioServ, Frenchtown, NJ) into the food magazine. The house light, which was mounted on the ceiling, was turned on when the session began, remained on throughout the entire session, and was turned off at the end of the session. Each experimental chamber was enclosed in a melamine sound-attenuating cubicle and equipped with a white noise generator to provide masking noise.
(§3) Each mouse was initially trained under a variable time 60-s operant schedule for 5 days, followed by fixed ratio-1 ratio schedule for 5 days. After the mice had acquired lever-pressing behavior, they were trained during daily DRL 6-s sessions for ~1 week, then mice progressed through weekly ascending DRL requirements (12, 18, 24, 30 s) before moving to DRL 36-s sessions. […] Experimental sessions lasted for 45 min and were conducted 5 days/week during light hours.
(§4) Drugs were administered to the animals once or twice weekly with at least 1 week between subsequent drugs to minimize possible carryover effects. Drug treatments were administered on Tuesdays and Fridays. No treatments were administered on other test days. Wednesdays were control days. “Control” behavior was calculated as the pooled mean lever presses or reinforcers received during Wednesday sessions across all Wednesdays for the duration of each study. Performance was normalized to percent of control by dividing total responses (or reinforcers) for each drug or vehicle treatment by the mean number of responses (reinforcers) in the respective pooled control condition, multiplied by 100.
(§5) The data analyses were conducted on the raw response and reinforcement data. All behavioral data are expressed as the mean ± s.e.m. normalized to the control condition.

[2] = test system: mice lacking OX2 receptors; experiment: DRL 36-s schedule of reinforcement in OX2 KO mice; assay type: in vivo, mouse; conditions: for Lever Presses Mean / Reinforcers Mean: OX2 KO mice DRL-36-s, raw data; for Lever presses emitted / Reinforcers received: mice lacking OX2 receptors, DRL-36-s
Excerpt: as §1, §2, §3, §4, §5

[3] = test system: Sprague–Dawley rats; experiment: DRL 72-s schedule of reinforcement in rats; assay type: in vivo, rat; conditions: for Lever Presses Mean / Reinforcers Mean: HSD rats DRL-72-s, raw data
Excerpt: Each chamber was enclosed in a melamine sound-attenuating cubicle. A white noise generator provided masking noise. The interior of each chamber consisted of three levers mounted on one wall with a house light mounted on the opposite wall. The house light was turned on at initiation of each test session and was turned off at the termination of each session. A water access port was situated next to the lever in the middle of the wall, wherein a reinforced response caused a clicker apparatus to sound paired with a dipper (0.02-ml cup) to be lifted from a water trough to an opening in the floor of the access port for 4 s.
Rats were initially trained under an alternative fixed ratio 1 water reinforcement schedule with a fixed 1-min time schedule for automatic reinforcement. Thus, each response was reinforced, with water also provided every minute in the absence of a response. […] Following acquisition of lever-pressing behavior, rats were trained daily on DRL 18-s sessions for ~2 weeks, following which they were advanced to DRL 72-s sessions. Responding on these sessions became stable after ~8 weeks. Experimental test sessions lasted for 1 h and were conducted 5 days/week during light hours.
as §4, §5

[4] = test system: C57Bl/6 mice; experiment: DRL 36-s schedule of reinforcement in wild-type mice; assay type: in vivo, mouse; conditions: for Lever Presses Mean / Reinforcers Mean: WT mice DRL-36-s, raw data
Excerpt: as §2, §3, §4, §5

[5] = test system: c-Fos protein in rat medial prefrontal cortex; experiment: Restraint-stress-induced c-Fos activation (ELISA); conditions: 3 mg/kg IP 30 min before 20 min restraint, 3 mg/kg
Description: Thirty min later, rats were restrained in a rigid plastic flat-bottom restraint tube (Braintree Scientific, Inc.; Braintree, MA, USA) for 20 min. After the 20 min stress period, rats were moved to a new cage and housed individually. Rats were sacrificed 2 h after stress onset. […] Immediately after sacrifice, brains were removed, the medial prefrontal cortex (mPFC), a brain area implicated in the pathophysiology of depression, was dissected from both hemispheres and frozen in 1.5 ml centrifuge tubes in dry ice, and stored at −80°C for later analysis.
Frozen mPFC tissues were removed from the −80°C freezer and placed on ice. Tissue was homogenized with a dounce homogenizer. The nuclear extract was prepared from the homogenized samples as per manufacturer's instructions using a CHEMICON ®Nuclear Extraction Kit (Millipore; Billerica, MA, USA). Protein concentrations were determined in the nuclear extracts using the Pierce BCA Protein Assay kit (Pierce Biotechnology, Inc., Rockford, IL, USA). Nuclear fractions were then assayed for Fos protein levels using the Pierce c-Fos Transcription Factor Kit (Pierce Biotechnology, Inc., Rockford, IL, USA), according to the manufacturer's instructions. […] Data were analyzed and plotted using GraphPad Prism (GraphPad Software, Inc.; La Jolla, CA, USA).

[6] = mice lacking OX1 receptors, 15 mg/kg
[7] = 10 mg/kg, positive control in the SB334867 experiment
[8] = rats DRL-72-s, 10 mg/kg, normalized to control days
[9] = rats DRL-72-s, 10 mg/kg, positive control in the SB334867 experiment
[10] = mice lacking OX1 receptors, 20 mg/kg

CN(C)CCCN1c2ccccc2CCc2ccccc21 [imipramine]
Lever Presses Mean ([1]; dose 3 mg/kg): 177.63
Lever Presses Mean ([1]; dose 10 mg/kg): 174.13
Reinforcers Mean ([1]; dose 10 mg/kg): 24.25
Lever Presses Mean ([1]; dose 15 mg/kg): 128.50
Reinforcers Mean ([1]; dose 15 mg/kg): 31.13
Lever presses emitted [1, 6]: 63 % of control
Reinforcers received [1, 6]: 206 % of control
Effect on lever pressing, in words ([1]; mice lacking OX1 receptors, doses lower than 15 mg/kg): did not affect lever pressing
Lever Presses Mean ([2]; dose 10 mg/kg): 165.25
Reinforcers Mean ([2]; dose 10 mg/kg): 27.88
Lever Presses Mean ([2]; dose 15 mg/kg): 116.88
Reinforcers Mean ([2]; dose 15 mg/kg): 33.00
Lever presses emitted ([2]; 15 mg/kg): 70 % of control
Reinforcers received ([2]; 15 mg/kg): 140 % of control
Lever Presses Mean ([3]; 10 mg/kg, positive control in the LSN2424100 experiment): 55.71
Lever Presses Mean [3, 7]: 49.00
Reinforcers Mean [3, 7]: 18.57
Lever Presses Mean ([3]; dose 1 mg/kg): 77.50
Reinforcers Mean ([3]; dose 1 mg/kg): 9.92
Lever Presses Mean ([3]; dose 3 mg/kg): 68.42
Reinforcers Mean ([3]; dose 3 mg/kg): 15.17
Lever Presses Mean ([3]; dose 10 mg/kg): 46.17
Reinforcers Mean ([3]; dose 10 mg/kg): 20.33
Reinforcers received [3, 8]: 210 % of control
Total lever presses emitted [3, 8]: 51 % of control
Lever presses [3, 9]: 64 % of control
Reinforcers received [3, 9]: 160 % of control
Effect on DRL behavior (lever presses, reinforcers), in words ([3]; rats DRL-72-s, doses of 1 and 3 mg/kg): no significant effect on behavior

Cc1nc2ccc(NC(=O)Nc3ccnc4cccnc34)cc2o1 [SB334867]
Effect on lever presses emitted or reinforcers received, in words ([4]; C57Bl/6 mice DRL-36-s, up to 40 mg/kg): did not significantly affect
Lever Presses Mean ([4]; dose 3 mg/kg): 162.86
Reinforcers Mean ([4]; dose 3 mg/kg): 17.14
Lever Presses Mean ([4]; dose 10 mg/kg): 157.57
Reinforcers Mean ([4]; dose 10 mg/kg): 16.14
Lever Presses Mean ([4]; dose 20 mg/kg): 148.57
Reinforcers Mean ([4]; dose 20 mg/kg): 18.43
Lever Presses Mean ([4]; dose 40 mg/kg): 87.67
Reinforcers Mean ([4]; dose 40 mg/kg): 22.33
Lever Presses Mean ([1]; dose 1 mg/kg): 209.75
Reinforcers Mean ([1]; dose 1 mg/kg): 15.00
Lever Presses Mean ([1]; dose 3 mg/kg): 169.00
Reinforcers Mean ([1]; dose 3 mg/kg): 23.88
Lever Presses Mean ([1]; dose 10 mg/kg): 163.63
Reinforcers Mean ([1]; dose 10 mg/kg): 22.88
Lever Presses Mean ([1]; dose 20 mg/kg): 141.88
Reinforcers Mean ([1]; dose 20 mg/kg): 28.75
Lever Presses Mean ([1]; dose 40 mg/kg): 68.13
Reinforcers Mean ([1]; dose 40 mg/kg): 21.38
Lever presses emitted [1, 10]: 75 % of control
Reinforcers received [1, 10]: 166 % of control
Lever presses emitted ([1]; mice lacking OX1 receptors, 40 mg/kg): 35 % of control
Reinforcers received ([1]; mice lacking OX1 receptors, 40 mg/kg, not significant): 123%
Lever Presses Mean ([2]; dose 1 mg/kg): 175.50
Reinforcers Mean ([2]; dose 1 mg/kg): 19.50
Lever Presses Mean ([2]; dose 3 mg/kg): 155.75
Reinforcers Mean ([2]; dose 3 mg/kg): 21.50
Lever Presses Mean ([2]; dose 10 mg/kg): 167.75
Reinforcers Mean ([2]; dose 10 mg/kg): 22.75
Lever Presses Mean ([2]; dose 20 mg/kg): 149.50
Reinforcers Mean ([2]; dose 20 mg/kg): 26.25
Lever Presses Mean ([2]; dose 40 mg/kg): 27.38
Reinforcers Mean ([2]; dose 40 mg/kg): 17.50
Lever presses emitted ([2]; 40 mg/kg): less than 20 % of control
Reinforcers received ([2]; 40 mg/kg): 75 % of control
Lever Presses Mean ([3]; dose 3 mg/kg): 76.57
Reinforcers Mean ([3]; dose 3 mg/kg): 11.00
Lever Presses Mean ([3]; dose 10 mg/kg): 70.71
Reinforcers Mean ([3]; dose 10 mg/kg): 12.43
Lever Presses Mean ([3]; dose 30 mg/kg IP): 71.86
Reinforcers Mean ([3]; dose 30 mg/kg IP): 11.00
Change in reinforcers received or total lever presses made, in words ([3]; rats DRL-72-s, doses up to 30 mg/kg): did not produce a significant change

Cc1nnc2n1-c1ccc(Cl)cc1C(c1ccccc1)=NC2 [alprazolam]
Effect on restraint stress-induced increase in c-fos expression in prefrontal cortex [5]: attenuated; also recorded: blocked
